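In this assay, cells in 96-well plates receive the compound at five concentrations for 48 hours. Endpoints are linearly interpolated between the surrounding concentrations. Abbreviation: GI50, concentration required for 50% inhibition of growth. TGI denotes the concentration required for complete inhibition of growth.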
Tests used:
Experiment in all cases: NCI anticancer screen, dose series, 48 h
786-0 renal = system: 786-0 renal
A498 renal = system: A498 renal
A549 NSCLC = system: A549 NSCLC
ACHN renal = system: ACHN renal
BT-549 breast = system: BT-549 breast
CAKI-1 renal = system: CAKI-1 renal
CCRF-CEM leukemia = system: CCRF-CEM leukemia
COLO 205 colon = system: COLO 205 colon
DU-145 prostate = system: DU-145 prostate
EKVX NSCLC = system: EKVX NSCLC
HCC-2998 colon = system: HCC-2998 colon
HCT-116 colon = system: HCT-116 colon
HCT-15 colon = system: HCT-15 colon
HL-60(TB) leukemia = system: HL-60(TB) leukemia
HOP-62 NSCLC = system: HOP-62 NSCLC
HOP-92 NSCLC = system: HOP-92 NSCLC
HS 578T breast = system: HS 578T breast
HT29 colon = system: HT29 colon
IGROV1 ovarian = system: IGROV1 ovarian
K-562 leukemia = system: K-562 leukemia
KM12 colon = system: KM12 colon
LOX IMVI melanoma = system: LOX IMVI melanoma
M14 melanoma = system: M14 melanoma
MALME-3M melanoma = system: MALME-3M melanoma
MCF7 breast = system: MCF7 breast
MDA-MB-231 breast = system: MDA-MB-231 breast
MDA-MB-435 = system: MDA-MB-435
MOLT-4 leukemia = system: MOLT-4 leukemia
NCI-H226 lung = system: NCI-H226 lung
NCI-H23 lung = system: NCI-H23 lung
NCI-H460 lung = system: NCI-H460 lung
NCI-H522 lung = system: NCI-H522 lung
NCI/ADR-RES ovarian = system: NCI/ADR-RES ovarian
OVCAR-3 ovarian = system: OVCAR-3 ovarian
OVCAR-4 ovarian = system: OVCAR-4 ovarian
OVCAR-5 ovarian = system: OVCAR-5 ovarian
OVCAR-8 ovarian = system: OVCAR-8 ovarian
PC-3 prostate = system: PC-3 prostate
RPMI-8226 leukemia = system: RPMI-8226 leukemia
RXF 393 renal = system: RXF 393 renal
SF-268 CNS = system: SF-268 CNS
SF-295 CNS = system: SF-295 CNS
SF-539 CNS = system: SF-539 CNS
SK-MEL-2 melanoma = system: SK-MEL-2 melanoma
SK-MEL-28 melanoma = system: SK-MEL-28 melanoma
SK-MEL-5 melanoma = system: SK-MEL-5 melanoma
SK-OV-3 ovarian = system: SK-OV-3 ovarian
SN12C renal = system: SN12C renal
SNB-19 CNS = system: SNB-19 CNS
SNB-75 CNS = system: SNB-75 CNS
SR leukemia = system: SR leukemia
SW-620 colon = system: SW-620 colon
TK-10 renal = system: TK-10 renal
U251 CNS = system: U251 CNS
UACC-257 melanoma = system: UACC-257 melanoma
UACC-62 melanoma = system: UACC-62 melanoma
UO-31 renal = system: UO-31 renal

[O]=[Sn]([CH]1CCCCC1)[CH]1CCCCC1
GI50 (786-0 renal): 214 nM | TGI (786-0 renal): 456 nM | GI50 (A498 renal): 167 nM | TGI (A498 renal): 451 nM | GI50 (A549 NSCLC): 1400 nM | TGI (A549 NSCLC): 2890 nM | GI50 (ACHN renal): 309 nM | TGI (ACHN renal): 1120 nM | GI50 (BT-549 breast): 229 nM | TGI (BT-549 breast): 588 nM | GI50 (CAKI-1 renal): 145 nM | TGI (CAKI-1 renal): 341 nM | GI50 (CCRF-CEM leukemia): 48.8 nM | TGI (CCRF-CEM leukemia): 774 nM | GI50 (COLO 205 colon): 249 nM | TGI (COLO 205 colon): 731 nM | GI50 (DU-145 prostate): 259 nM | TGI (DU-145 prostate): 839 nM | GI50 (EKVX NSCLC): 225 nM | TGI (EKVX NSCLC): 1200 nM | GI50 (HCC-2998 colon): 245 nM | TGI (HCC-2998 colon): 693 nM | GI50 (HCT-116 colon): 152 nM | TGI (HCT-116 colon): 320 nM | GI50 (HCT-15 colon): 197 nM | TGI (HCT-15 colon): 691 nM | GI50 (HL-60(TB) leukemia): 248 nM | TGI (HL-60(TB) leukemia): 1550 nM | GI50 (HOP-62 NSCLC): 407 nM | TGI (HOP-62 NSCLC): 1540 nM | GI50 (HOP-92 NSCLC): 251 nM | TGI (HOP-92 NSCLC): 1200 nM | GI50 (HS 578T breast): 266 nM | TGI (HS 578T breast): 1520 nM | GI50 (HT29 colon): 298 nM | TGI (HT29 colon): 866 nM | GI50 (IGROV1 ovarian): 274 nM | TGI (IGROV1 ovarian): 915 nM | GI50 (K-562 leukemia): 117 nM | GI50 (KM12 colon): 341 nM | TGI (KM12 colon): 1250 nM | GI50 (LOX IMVI melanoma): 123 nM | TGI (LOX IMVI melanoma): 297 nM | GI50 (M14 melanoma): 239 nM | TGI (M14 melanoma): 677 nM | GI50 (MALME-3M melanoma): 173 nM | TGI (MALME-3M melanoma): 555 nM | GI50 (MCF7 breast): 84.9 nM | GI50 (MDA-MB-231 breast): 280 nM | TGI (MDA-MB-231 breast): 1040 nM | GI50 (MDA-MB-435): 218 nM | TGI (MDA-MB-435): 833 nM | GI50 (MOLT-4 leukemia): 273 nM | GI50 (NCI-H226 lung): 229 nM | TGI (NCI-H226 lung): 657 nM | GI50 (NCI-H23 lung): 198 nM | TGI (NCI-H23 lung): 591 nM | GI50 (NCI-H460 lung): 389 nM | TGI (NCI-H460 lung): 1430 nM | GI50 (NCI-H522 lung): 71.1 nM | TGI (NCI-H522 lung): 217 nM | GI50 (NCI/ADR-RES ovarian): 357 nM | TGI (NCI/ADR-RES ovarian): 1630 nM | GI50 (OVCAR-3 ovarian): 203 nM | TGI (OVCAR-3 ovarian): 549 nM | GI50 (OVCAR-4 ovarian): 342 nM | TGI (OVCAR-4 ovarian): 1460 nM | GI50 (OVCAR-5 ovarian): 620 nM | TGI (OVCAR-5 ovarian): 1710 nM | GI50 (OVCAR-8 ovarian): 298 nM | TGI (OVCAR-8 ovarian): 1170 nM | GI50 (PC-3 prostate): 517 nM | TGI (PC-3 prostate): 1940 nM | GI50 (RPMI-8226 leukemia): 188 nM | TGI (RPMI-8226 leukemia): 718 nM | GI50 (RXF 393 renal): 96.2 nM | TGI (RXF 393 renal): 241 nM | GI50 (SF-268 CNS): 214 nM | TGI (SF-268 CNS): 654 nM | GI50 (SF-295 CNS): 319 nM | TGI (SF-295 CNS): 1350 nM | GI50 (SF-539 CNS): 240 nM | TGI (SF-539 CNS): 710 nM | GI50 (SK-MEL-2 melanoma): 108 nM | TGI (SK-MEL-2 melanoma): 284 nM | GI50 (SK-MEL-28 melanoma): 279 nM | TGI (SK-MEL-28 melanoma): 1140 nM | GI50 (SK-MEL-5 melanoma): 259 nM | TGI (SK-MEL-5 melanoma): 1140 nM | GI50 (SK-OV-3 ovarian): 1200 nM | TGI (SK-OV-3 ovarian): 2520 nM | GI50 (SN12C renal): 315 nM | TGI (SN12C renal): 1230 nM | GI50 (SNB-19 CNS): 271 nM | TGI (SNB-19 CNS): 950 nM | GI50 (SNB-75 CNS): 158 nM | TGI (SNB-75 CNS): 562 nM | GI50 (SR leukemia): 312 nM | TGI (SR leukemia): 1710 nM | GI50 (SW-620 colon): 93.4 nM | TGI (SW-620 colon): 238 nM | GI50 (TK-10 renal): 267 nM | TGI (TK-10 renal): 1140 nM | GI50 (U251 CNS): 51.4 nM | TGI (U251 CNS): 200 nM | GI50 (UACC-257 melanoma): 133 nM | TGI (UACC-257 melanoma): 384 nM | GI50 (UACC-62 melanoma): 208 nM | TGI (UACC-62 melanoma): 743 nM | GI50 (UO-31 renal): 293 nM | TGI (UO-31 renal): 1080 nM

Source: PubChem BioAssay (NCI)
